In patent US20250186652A1, “ARTICLES AND METHODS FOR IMPROVED TISSUE HEALING” (UNIVERSITY OF MISSISSIPPI MEDICAL CENTER, priority 2022, published 2025):

What was measured:
CTGF = conditions: cells under hypoxic conditions; Haung, Adah et al. 2009; cited from earlier work
Hif-1 alpha = assay: Inhibition of Hif-1 alpha leading to CTGF in vitro
Excerpt: Fructose-1,6-bisphosphate (FBP) is an intermediate in glycolysis which, if provided to cells could allow them to bypass two ATP-requiring steps for energy production. […] M6P is known to isomerize to fructose-6-phosphate (F6P), an intermediate of glycolysis in the step prior to FBP (FIG. 1). Therefore, one might hypothesize that treatment with M6P may decrease production of CTGF by decreasing the need for substrate-level phosphorylation, which would be vital in hypoxic conditions. In this regard, the present inventors have shown that […] produces the inhibition of Hif-1 alpha leading to CTGF in vitro. Alternatively, latent TGF-β is activated through its binding with the M6P/IGFII receptor (Ghahary, Tredget et al. 1999). Competitive inhibition of the activation of TGF-β through treatment with M6P is considered another method by which M6P may inhibit fibrosis. It is thought that M6P may have more potential for reducing fibrosis than FBP because its mechanism of action is not dependent upon a hypoxic environment.

MRC-5 fibroblast cells = assay: In vitro fibroblast proliferation/viability with M6P and TGF-β1; type: cell-based
Excerpt: FIGS. 8A-B show images illustrating that M6P competes with TGFβ. (A) Use of MRC-5 fibroblast cells in an in vitro assessment of concentration effects of TGFβ and M6P as well as effectiveness of M6P to block the proliferative effects of TGFβ. (B) Schematic showing potential mechanism of M6P and TGFβ competing for the same M6P receptor that leads to increase gene regulation.

human tenocytes = conditions: in vitro; Wong, Tang et al. 2003; cited from earlier work
[1] = tested on: human dermal fibroblast and keratinocyte; conditions: Clavel, Barragan-Montero et al. 2005; cited from earlier work
digital flexor tendons = conditions: three weeks after operation; vs operated controls; cited from earlier work

O=C(COP(=O)(O)O)[C@@H](O)[C@H](O)[C@H](O)COP(=O)(O)O [FBP, Fructose-1,6-bisphosphate]
production of CTGF (CTGF): decreases production of CTGF to near control conditions

O=C(CO)[C@@H](O)[C@H](O)[C@H](O)COP(=O)(O)O [F6P, fructose 6 phosphate]
inhibition of Hif-1 alpha leading to CTGF (Hif-1 alpha): inhibition

TGF-β1: TGF-β1 growth factor added to fibroblast cells [reference compound]
cell proliferation (MRC-5 fibroblast cells; TGF-β1 added at 8 pM): enhanced cell proliferation
toxicity to the cells (MRC-5 fibroblast cells; TGF-β1 at the higher doses): toxic

C[C@@H]1C[C@H]2[C@@H]3CCC4=CC(=O)C=C[C@]4(C)[C@@]3(F)[C@@H](O)C[C@]2(C)[C@@]1(O)C(=O)CO [dexamethasone]
tenocyte viability, mitotic activity and collagen production (human tenocytes): negative effects

O=C[C@@H](O)[C@@H](O)[C@H](O)[C@H](O)COP(=O)(O)O [M6P, mannose 6 phosphate]
cell proliferation of fibroblast cells (MRC-5 fibroblast cells; 0.05 μM M6P): enhance cell proliferation
toxic effect on fibroblast cells (MRC-5 fibroblast cells; 0.05 μM M6P): without evidence of a toxic effect
TGF-β1-induced proliferation (MRC-5 fibroblast cells; M6P added along with TGF-β1): increased proliferation was eliminated
inhibition of proliferation [1]: potent inhibitor

B1: PDGF-BB: platelet-derived growth factor-BB, controlled release from fibrin-based delivery system (protein, UniProt P01127 82-190, looked up)
Platelet-derived growth …: SLGSLTIAEPAMIAECKTRTEVFEISRRLIDRTNANFLVWPPCVEVQRCSGCCNNRNVQCRPTQVQLRPVQVRKIEIVRKKPIFKKATVTLEDHLACKCETVAAARPVT
range of motion (ROM) (digital flexor tendons): significantly greater ROM
